# From patent publication US20240368092A1, “2,4-Dihydro-3H-1,2,4-Triazol-3-One P2X7 Antagonists” (Breye Therapeutics ApS, priority 2021, published 2024)
# pIC50: −log10 of the molar value.
# What was measured:
# Assay type in all cases: cell-based
# [1] = target: T1, mouseP2X7 (Mus musculus, UniProt Q9Z1M0); assay: P2X7 channel calcium-influx assay (Fluo-8, FLIPR TETRA), mouse P2X7; details: HEK-293 cells stably transfected with P2X7; Bz-ATP at EC80; low divalent cation buffer; read-out: mouseP2X7 (activity range)
# T1 construct: expressed in transfected cells; host or cells: HEK-293
# T1 sequence (Q9Z1M0 1-595): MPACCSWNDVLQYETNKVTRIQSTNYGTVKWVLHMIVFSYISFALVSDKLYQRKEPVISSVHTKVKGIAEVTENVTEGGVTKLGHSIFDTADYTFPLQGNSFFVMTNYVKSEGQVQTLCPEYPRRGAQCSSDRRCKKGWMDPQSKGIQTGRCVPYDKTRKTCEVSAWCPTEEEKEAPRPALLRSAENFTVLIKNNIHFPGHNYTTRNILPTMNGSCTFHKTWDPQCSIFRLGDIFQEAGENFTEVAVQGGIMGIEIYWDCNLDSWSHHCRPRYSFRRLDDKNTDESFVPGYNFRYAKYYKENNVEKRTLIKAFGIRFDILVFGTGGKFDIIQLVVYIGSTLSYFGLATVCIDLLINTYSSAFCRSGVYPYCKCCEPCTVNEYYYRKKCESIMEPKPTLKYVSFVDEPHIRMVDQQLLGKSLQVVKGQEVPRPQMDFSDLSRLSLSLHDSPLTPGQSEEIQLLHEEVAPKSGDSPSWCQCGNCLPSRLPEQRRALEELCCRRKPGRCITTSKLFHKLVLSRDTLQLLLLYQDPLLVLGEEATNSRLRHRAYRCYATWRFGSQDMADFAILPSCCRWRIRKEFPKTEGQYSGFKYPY
# Protocol: (§1) Extracellular binding of Bz-ATP to P2X7 receptor opens the channel and allows Ca^2+ influx into the cells. This Ca^2+ entry was measured in HEK-293 cells stably transfected with P2X7 receptor using Screen Quest™ Fluo-8 No Wash Calcium Assay Kit (AAt Bioquest®, cat. 36316). Once inside the cell, the lipophilic blocking groups of Fluo-8 are cleaved by non-specific cell esterases, resulting in a negatively-charged fluorescent dye that stays inside cells. Its fluorescence increases upon binding to calcium. When HEK-293/P2X7 cells are stimulated with Bz-ATP, Ca^2+ enters the cells and the fluorescence of Fluo-8 NW increases. The dye has an absorption spectrum compatible with excitation at 488 nm by argon laser sources and its emission wavelength is in the range of 515-575 nm.
# (§2) HEK-293 cells stably transfected with P2X7 receptor were seeded overnight in growth medium at 10,000 to 20,000 cells/well in 384-well plate. 24 hours later, the medium was removed, and the cells were pre-loaded at RT for 1 hour with 20 μL/w of Fluo-8 NW. Then 10 μL/w of test compounds and reference antagonist A438079 at 3×-concentration were injected with the FLIPRTETRA and the kinetic response over a period of five minutes was monitored. A second injection of 15 μL/w of 3× reference activator (Bz-ATP at EC80) was performed with the FLIPR TETRA and the signal of the emitted fluorescence was recorded for additional three minutes. All the experiment was carried out in a Low Divalent Cation Assay Buffer (0.3 mM Ca^2+ and 0 mM Mg^2+). The effect of the test compounds was measured as percent inhibition vs the reference antagonist and IC50 values were calculated accordingly. Here are reported the potency ranges as A, B, C and D, where A is <200 nM; B is 200 nM-1 μM, C is 1-10 μM, D is 10-30 μM.
# [2] = target: T2, ratP2X7 (Rattus norvegicus, UniProt Q64663); assay: P2X7 channel calcium-influx assay (Fluo-8, FLIPR TETRA), rat P2X7; details: HEK-293 cells stably transfected with P2X7; Bz-ATP at EC80; low divalent cation buffer; read-out: ratP2X7 (activity range)
# T2 construct: expressed in transfected cells; host or cells: HEK-293
# T2 sequence (Q64663 1-595): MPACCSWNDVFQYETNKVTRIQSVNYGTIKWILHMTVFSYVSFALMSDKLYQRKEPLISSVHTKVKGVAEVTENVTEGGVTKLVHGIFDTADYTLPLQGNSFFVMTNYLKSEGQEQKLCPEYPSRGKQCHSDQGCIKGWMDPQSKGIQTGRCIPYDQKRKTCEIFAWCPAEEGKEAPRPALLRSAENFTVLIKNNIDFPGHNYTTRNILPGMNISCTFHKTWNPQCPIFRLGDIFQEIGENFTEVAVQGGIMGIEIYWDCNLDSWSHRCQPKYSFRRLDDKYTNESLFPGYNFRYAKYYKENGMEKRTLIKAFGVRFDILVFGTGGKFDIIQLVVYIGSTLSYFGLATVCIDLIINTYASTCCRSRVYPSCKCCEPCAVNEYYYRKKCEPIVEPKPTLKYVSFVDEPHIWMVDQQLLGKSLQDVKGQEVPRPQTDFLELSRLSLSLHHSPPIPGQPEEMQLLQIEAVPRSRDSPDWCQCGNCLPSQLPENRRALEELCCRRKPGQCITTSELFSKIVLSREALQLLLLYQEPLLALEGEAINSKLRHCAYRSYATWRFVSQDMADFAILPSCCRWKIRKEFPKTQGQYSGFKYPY
# Protocol: as §1, §2
# [3] = target: T3, humanP2X7 (Homo sapiens, UniProt Q99572); assay: P2X7 channel calcium-influx assay (Fluo-8, FLIPR TETRA), human P2X7; details: HEK-293 cells stably transfected with P2X7; Bz-ATP at EC80; low divalent cation buffer; read-out: humanP2X7 (activity range)
# T3 construct: expressed in transfected cells; host or cells: HEK-293
# T3 sequence (Q99572 1-595): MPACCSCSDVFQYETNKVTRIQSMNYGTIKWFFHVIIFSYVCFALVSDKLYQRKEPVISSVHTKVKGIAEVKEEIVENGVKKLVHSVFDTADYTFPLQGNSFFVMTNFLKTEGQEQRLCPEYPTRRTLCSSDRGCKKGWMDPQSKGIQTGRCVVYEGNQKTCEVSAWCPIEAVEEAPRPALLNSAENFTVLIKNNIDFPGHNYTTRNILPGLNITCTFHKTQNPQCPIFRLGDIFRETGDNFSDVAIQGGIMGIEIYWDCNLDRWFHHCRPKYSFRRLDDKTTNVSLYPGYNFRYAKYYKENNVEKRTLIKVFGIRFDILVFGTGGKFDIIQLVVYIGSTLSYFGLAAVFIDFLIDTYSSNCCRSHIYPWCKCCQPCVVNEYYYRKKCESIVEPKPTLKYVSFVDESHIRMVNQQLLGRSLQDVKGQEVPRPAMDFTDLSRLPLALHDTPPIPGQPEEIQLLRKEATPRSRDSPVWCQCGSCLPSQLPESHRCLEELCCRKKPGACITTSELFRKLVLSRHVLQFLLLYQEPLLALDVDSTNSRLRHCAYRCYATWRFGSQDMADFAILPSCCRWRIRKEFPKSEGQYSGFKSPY
# Protocol: as §1, §2
# [4] = target: T4, human P2X7 channel (Homo sapiens, UniProt Q99572); assay: human P2X7 channel assay by automated patch-clamp (QPatch 16X); details: HEK-293 cells expressing P2X7; current evoked by 100 microM BzATP; whole-cell, held at -80 mV; read-out: human Q-Patch (activity range)
# T4 construct: expressed in transfected cells; host or cells: HEK-293
# T4 sequence (Q99572 1-595): T3 sequence (Q99572 1-595)
# Protocol: In order to directly monitor the block of P2X7 channel, an electrophysiological assay was developed and implemented on the QPatchl6X automated electrophysiology instrument.
# HEK-293 cells expressing the P2X7 channels were cultured in modified EMEM.
# 72 hours before experiment, 5 million cells were seeded onto T225 flasks. Just before the experiment cells were washed twice, detached from the flask with trypsin-EDTA, re-suspended in the suspension solution and placed on the QPatch 16x.
# The compounds (20 mM in a 100% DMSO) stored at −20° C. were prepared the day of the experiment (a first dilution 1:20 in 100% DMSO to prepare a 1 mM stock solution, then a 1 microM solution in external solution+a serial dilution 1:10).
# The standard whole-cell voltage clamp experiments were performed at room temperature. From these experiments the multihole technology was used and the data were sampled at 2 KHz.
# The intracellular solution contained (mM) 135 CsF, 10 NaCl, 1 EGTA, 10 HEPES, (pH 7.2 with CsOH) whereas the extracellular contained (mM) 145 NaCl, 4 KCl, 0.5 MgCl2, 1 CaCl2, 10 HEPES, 10 Glc (pH 7.4 with NaOH).
# After establishment of the seal and the passage in the whole cell configuration, the cells were held at −80 mV. The P2XR7 current was evoked by applying 100 microM of BzATP alone (4 times) and then in the presence increasing concentrations of the compound under investigation (1, 10, 100 and 1000 nM).
# The pre-incubation periods 5 to 8 contain increasing concentrations of the compound of interest (1, 10, 100 and 1000 nM), as illustrated in FIGURE (application protocol).
# The maximal inward current evoked by BzATP in absence or presence of increasing concentrations of the compounds under investigation was measured and normalized. The potential […] effect was measured as % of control and as IC50 determined fitting the dose-response curves data with the following equation:
# Here are reported the potency ranges as A, B, C and D, where A is <10 nM; B is 10 nM-100 nM, C is 0.1-1 μM, D is 1-10 μM.
SMILES,pIC50 [1],pIC50 [2],pIC50 [3],pIC50 [4]
"Cn1nc(Cc2c(F)cccc2Cl)n(Cc2ccc(F)cc2)c1=O [Example 1, 5-(2-chloro-6-fluorobenzyl)-4-(4-fluorobenzyl)-2-methyl-2,4-dihydro-3H-1,2,4-triazol-3-one]",5.00 to 6.00,6.00 to 6.70,5.00 to 6.00,–
"Cn1nc(Cc2c(F)cccc2Cl)n(CC2CCCCC2)c1=O [Example 2, 5-(2-chloro-6-fluorobenzyl)-4-(cyclohexylmethyl)-2-methyl-2,4-dihydro-3H-1,2,4-triazol-3-one]",6.00 to 6.70,> 6.70,6.00 to 6.70,> 8.00
"Cn1nc(Cc2c(F)cccc2Cl)n(CC2CCC(F)(F)CC2)c1=O [Example 3, 5-(2-chloro-6-fluorobenzyl)-4-((4,4-difluorocyclohexyl)methyl)-2-methyl-2,4-dihydro-3H-1,2,4-triazol-3-one]",6.00 to 6.70,> 6.70,> 6.70,7.00 to 8.00
"Cn1nc(Cc2c(F)cccc2Cl)n(CC2CCC(F)(F)C2)c1=O (centres unmarked) [Example 4, 5-(2-chloro-6-fluorobenzyl)-4-((3,3-difluorocyclopentyl)methyl)-2-methyl-2,4-dihydro-3H-1,2,4-triazol-3-one]",5.00 to 6.00,6.00 to 6.70,6.00 to 6.70,–
"Cn1nc(Cc2c(F)cccc2Cl)n(CC2CCC(F)CC2)c1=O (centres unmarked) [Example 6, 5-(2-chloro-6-fluorobenzyl)-4-((4-fluorocyclohexyl)methyl)-2-methyl-2,4-dihydro-3H-1,2,4-triazol-3-one]",6.00 to 6.70,> 6.70,6.00 to 6.70,–
"Cn1nc(Cc2c(F)cccc2Cl)n(CC2CCC(C(F)(F)F)CC2)c1=O (centres unmarked) [Example 7, 5-(2-chloro-6-fluorobenzyl)-2-methyl-4-((4-(trifluoromethyl)cyclohexyl)methyl)-2,4-dihydro-3H-1,2,4-triazol-3-one]",6.00 to 6.70,> 6.70,> 6.70,–
"Cn1nc(Cc2ccc(F)cc2Cl)n(Cc2ccc(F)cc2)c1=O [Example 8, 5-(2-chloro-4-fluorobenzyl)-4-(4-fluorobenzyl)-2-methyl-2,4-dihydro-3H-1,2,4-triazol-3-one]",5.00 to 6.00,5.00 to 6.00,5.00 to 6.00,–
"Cn1nc(Cc2ccc(F)cc2Cl)n(CC2CCCCC2)c1=O [Example 9, 5-(2-chloro-4-fluorobenzyl)-4-(cyclohexylmethyl)-2-methyl-2,4-dihydro-3H-1,2,4-triazol-3-one]",6.00 to 6.70,> 6.70,6.00 to 6.70,–
"Cn1nc(Cc2ccc(F)cc2Cl)n(CC2CCC(F)(F)C2)c1=O (centres unmarked) [Example 10, 5-(2-chloro-4-fluorobenzyl)-4-((3,3-difluorocyclopentyl)methyl)-2-methyl-2,4-dihydro-3H-1,2,4-triazol-3-one]",5.00 to 6.00,6.00 to 6.70,4.52 to 5.00,–
"O=c1n(CC(F)(F)F)nc(Cc2ccccc2Cl)n1CC1CCCCCC1 [Example 54, 5-[(2-chlorophenyl)methyl]-4-(cycloheptylmethyl)-2-(2,2,2-trifluoroethyl)-2,4-dihydro-3H-1,2,4-triazol-3-one]",6.00 to 6.70,> 6.70,6.00 to 6.70,–
"Cn1nc(CC2CCCCCC2)n(Cc2c(F)cccc2Cl)c1=O [Example 59, 4-[(2-chloro-6-fluorophenyl)methyl]-5-(cycloheptylmethyl)-2-methyl-2,4-dihydro-3H-1,2,4-triazol-3-one]",6.00 to 6.70,> 6.70,6.00 to 6.70,–
"CCn1nc(Cc2ccccc2Cl)n(CC2CCCCCC2)c1=O [Example 64, 5-[(2-chlorophenyl)methyl]-4-(cycloheptylmethyl)-2-ethyl-2,4-dihydro-3H-1,2,4-triazol-3-one]",6.00 to 6.70,> 6.70,> 6.70,–
"Cn1nc(CC2CCC(F)(F)CC2)n(Cc2c(F)cccc2Cl)c1=O [Example 71, 4-[(2-chloro-6-fluorophenyl)methyl]-5-[(4,4-difluorocyclohexyl)methyl]-2-methyl-2,4-dihydro-3H-1,2,4-triazol-3-one]",5.00 to 6.00,6.00 to 6.70,6.00 to 6.70,–
